Laboratory results taken from patent publication US6509002B1, “Diagnostic agent for diabetes” (priority 1997, dated 2003).
Each block holds one compound with its values, some of them ahead of it.

Assay: ^13C breath test, intravenous administration (femoral vein), diabetic vs normal rats
Format: in vivo, rat
Description: As test animals, male Sprague-Dawley strain (SD) neonatal rats were purchased from Nippon Charles River K. K. together with their lactating rats. […] Insulin secretion-deficient type diabetes was generated by administering streptozotocin (STZ) to neonatal rats (“Saibokogaku (Cell Engineering)”, Extra Issue, medical Experiment Manual Series, Strategy for Study of Diabetes, edited by Susumu Seino and Yoshikazu Oka, published by Shujunsha Co., Japan). STZ was subcutaneously administered to 2-day-old rats at a dose of 90 mg/kg. […] Two days after the administration, blood was collected by cardiac puncture, and the casual blood sugar level of each rat was measured with Terumo […] (blood sugar measurement set). […] Breath tests were carried out according to the method as described in (2)-1 or (2)-2 below on diabetic rats prepared in (1) above (8-10-week-old) and normal rats (8-10-week-old). […] A blood sample was collected from the tail vein, and its sugar level was determined using Terumo […] (blood sugar measurement set). […] Fine Science Tools Inc.).

[1] = diabetic rats, 10 mg/kg from the femoral vein, Example 34
[2] = normal rats, 10 mg/kg from the femoral vein, Example 34
[3] = diabetic rats, 20 mg/kg from the femoral vein, Example 12
[4] = normal rats, 20 mg/kg from the femoral vein, Example 12
[5] = diabetic rats, 5 mg/kg from the femoral vein, Example 28
[6] = normal rats, 5 mg/kg from the femoral vein, Example 28
[7] = diabetic rats, 10 mg/kg from the femoral vein, Example 9
[8] = normal rats, 10 mg/kg from the femoral vein, Example 9
[9] = diabetic rats, 50 mg/kg from the femoral vein, Example 14
[10] = normal rats, 50 mg/kg from the femoral vein, Example 14
[11] = diabetic rats, 10 mg/kg from the femoral vein, Example 25
[12] = normal rats, 10 mg/kg from the femoral vein, Example 25
[13] = diabetic rats, 20 mg/kg from the femoral vein, Example 23
[14] = normal rats, 20 mg/kg from the femoral vein, Example 23
[15] = diabetic rats (n=2), 20 mg/kg from the femoral vein, Example 18
[16] = normal rats, 20 mg/kg from the femoral vein, Example 18
[17] = diabetic rats, 20 mg/kg from the femoral vein, Example 22
[18] = normal rats, 20 mg/kg from the femoral vein, Example 22
[19] = diabetic rats, 20 mg/kg from the femoral vein, Example 8
[20] = normal rats, 20 mg/kg from the femoral vein, Example 8
[21] = diabetic rats, 50 mg/kg, printed as administered orally from the femoral vein, Example 19
[22] = normal rats, 50 mg/kg, printed as administered orally from the femoral vein, Example 19
[23] = diabetic rats, 30 mg/kg from the femoral vein, Example 32
[24] = normal rats, 30 mg/kg from the femoral vein, Example 32
[25] = diabetic rats, 70 mg/kg from the femoral vein, Example 30
[26] = normal rats, 70 mg/kg from the femoral vein, Example 30
[27] = diabetic rats, 50 mg/kg from the femoral vein, Example 31
[28] = normal rats, 50 mg/kg from the femoral vein, Example 31
[29] = diabetic rats, 20 mg/kg from the femoral vein, Example 21
[30] = normal rats, 20 mg/kg from the femoral vein, Example 21

Structure (SMILES): C[13C](=O)OCC(CO[13C](C)=O)O[13C](C)=O [1,1,1-^13C-triacetin]
slope from 6 to 10 min after the administration [1]: −6.26±1.50 ‰/4 min
time course of Δ^13C values (‰) [1]: increased sharply up to about 8 min after the administration, but thereafter decreased gradually up to 20 min
Δ^13C value (‰) at 4 min after the administration [1]: 41.97±2.79 ‰
slope from 6 to 10 min after the administration [2]: −0.83±0.90 ‰/4 min
time course of Δ^13C values (‰) [2]: continued increasing up to 20 min
Δ^13C value (‰) at 4 min after the administration [2]: 27.29±2.31 ‰

Structure (SMILES): Cl.NCCC[13C@H](N)[13C](=O)O [1,2-^13C-ornithine hydrochloride]
slope from 2 to 7 min after the administration [3]: 87.79±12.93 ‰/5 min
time course of Δ^13C values (‰) [3]: increased up to about 14 min after the administration, and thereafter remained at an almost constant level up to 20 min
Δ^13C value (‰) at 10 min after the administration [3]: 155.70±17.99 ‰
slope from 2 to 7 min after the administration [4]: 53.56±4.72 ‰/5 min
time course of Δ^13C values (‰) [4]: continued increasing up to 20 min
Δ^13C value (‰) at 10 min after the administration [4]: 100.71±5.97 ‰

Structure (SMILES): O=C(O)CC(O)(C[13C](=O)O)[13C](=O)O (centres unmarked) [1,6-^13C-citric acid]
slope from 10 to 14 min after the administration [5]: −10.45±1.30 ‰/4 min
Δ^13C value (‰) at 20 min after the administration [5]: 54.38±3.34 ‰
slope from 10 to 14 min after the administration [6]: −5.81±0.92 ‰/4 min
Δ^13C value (‰) at 20 min after the administration [6]: 67.49±1.82 ‰

Structure (SMILES): C[C@H](N)[13C](=O)O [1-^13C-alanine]
slope from 5 to 15 min after the administration [7]: −52.09±19.38 ‰/10 min
time course of Δ^13C values (‰) [7]: sharply increased up to 4 min after the administration of 1-^13C-alanine, but thereafter decreased gradually up to 20 min
Δ^13C value (‰) at 10 min after the administration [7]: 161.35±6.670 ‰
slope from 5 to 15 min after the administration [8]: −18.12±7.28 ‰/10 min
time course of Δ^13C values (‰) [8]: sharply increased up to 4 min after the administration of 1-^13C-alanine, but thereafter decreased gradually up to 20 min
Δ^13C value (‰) at 10 min after the administration [8]: 132.16±3.53 ‰

Structure (SMILES): N=C(N)NCCC[C@H](N)[13C](=O)O [1-^13C-arginine]
slope from 2 to 7 min after the administration [9]: 146.90±18.97 ‰/5 min
time course of Δ^13C values (‰) [9]: increased up to about 12 min after the administration, but thereafter decreased gradually up to 20 min
Δ^13C value (‰) at 10 min after the administration [9]: 192.40±30.23 ‰
slope from 2 to 7 min after the administration [10]: 75.02±10.01 ‰/5 min
time course of Δ^13C values (‰) [10]: continued increasing up to 20 min
Δ^13C value (‰) at 10 min after the administration [10]: 111.68±14.15 ‰

Structure (SMILES): N[C@@H](CC(=O)O)[13C](=O)O [1-^13C-aspartic acid]
slope from 3 to 8 min after the administration [11]: −53.79±11.42 ‰/5 min
time course of Δ^13C values (‰) [11]: increased sharply up to about 2 min after the administration of 1-^13C-aspartic acid, but thereafter decreased gradually up to 20 min
Δ^13C value (‰) at 3 min after the administration [11]: 172.66±8.65 ‰
slope from 3 to 8 min after the administration [12]: −8.13±10.84 ‰/5 min
time course of Δ^13C values (‰) [12]: increased sharply up to about 2 min after the administration of 1-^13C-aspartic acid, but thereafter decreased gradually up to 20 min
Δ^13C value (‰) at 3 min after the administration [12]: 126.56±13.45 ‰

Structure (SMILES): N[C@@H](CS)[13C](=O)O [1-^13C-cysteine]
slope from 1 to 2 min after the administration [13]: 38.50±2.33 ‰/min
Δ^13C value (‰) at 2 min after the administration [13]: 42.87±2.09 ‰
slope from 1 to 2 min after the administration [14]: 65.72±10.66 ‰/min
Δ^13C value (‰) at 2 min after the administration [14]: 78.97±13.98 ‰

Structure (SMILES): N[C@@H](CCC(=O)O)[13C](=O)O [1-^13C-glutamic acid]
time course of Δ^13C values (‰) (rat, in vivo, 10 mg/kg): increased sharply up to about 4 min after the administration of 1-^13C-glutamic acid, but thereafter decreased gradually up to 20 min

Structure (SMILES): Cl.NCCCC[C@H](N)[13C](=O)O [1-^13C-lysine hydrochloride]
slope from 15 to 20 min after the administration [21]: −26.64±5.36 ‰/5 min
time course of Δ^13C values (‰) [21]: increased up to about 10 min after the administration, but thereafter decreased gradually up to 20 min
Δ^13C value (‰) at 8 min after the administration [21]: 181.53±23.82 ‰
slope from 15 to 20 min after the administration [22]: −4.58±6.91 ‰/5 min
time course of Δ^13C values (‰) [22]: increased up to about 11 min after the administration of 1-^13C-lysine hydrochloride, and thereafter remained at an almost constant level up to 20 min
Δ^13C value (‰) at 8 min after the administration [22]: 96.95±27.48 ‰

Further lines, with some results ahead:

time course of Δ^13C values (‰) (rat, in vivo, 100 mg/kg): continued increasing up to 20 min
Structure (SMILES): O=C([13CH2]O)[C@@H](O)[C@H](O)[C@H](O)CO [1-^13C-fructose]

time course of Δ^13C values (‰) (rat, in vivo, 100 mg/kg): continued increasing up to 30 min
Structure (SMILES): O=[13CH][C@H](O)[C@@H](O)[C@@H](O)[C@H](O)CO [1-^13C-galactose]

slope from 1 to 2 min after the administration [15]: 105.59 ‰/min
Δ^13C value (‰) at 5 min after the administration [15]: 168.18 ‰
slope from 1 to 2 min after the administration [16]: 69.88±11.51 ‰/min
Δ^13C value (‰) at 5 min after the administration [16]: 107.17±15.42 ‰
Structure (SMILES): NC(=O)CC[C@H](N)[13C](=O)O [1-^13C-glutamine]
time course of Δ^13C values (‰) (diabetic rats, 20 mg/kg from the femoral vein, Example 18): increased sharply up to about 3 min after the administration, but thereafter decreased gradually up to 20 min
time course of Δ^13C values (‰) [16]: increased sharply up to about 3 min after the administration of 1-^13C-glutamine, and thereafter increased gradually up to 20 min

Δ^13C value (‰) at 7 min after the administration [17]: 156.62±10.83 ‰
Δ^13C value (‰) at 7 min after the administration [18]: 119.06±12.19 ‰
Structure (SMILES): NC[13C](=O)O [1-^13C-glycine]
time course of Δ^13C values (‰) [17]: increased sharply up to about 5 min after the administration, but thereafter decreased gradually up to 20 min
time course of Δ^13C values (‰) [18]: increased sharply up to about 5 min after the administration of 1-^13C-glycine, remained at an almost constant level up to about 12 min, but thereafter decreased gradually up to 20 min

slope from 2 to 5 min after the administration [19]: 56.21±2.09 ‰/3 min
Δ^13C value (‰) at 5 min after the administration [19]: 83.92±5.53 ‰
slope from 2 to 5 min after the administration [20]: 33.21±2.44 ‰/3 min
time course of Δ^13C values (‰) [20]: continued increasing up to 20 min
Δ^13C value (‰) at 5 min after the administration [20]: 46.98±3.24 ‰
Structure (SMILES): CC[C@H](C)[C@H](N)[13C](=O)O [1-^13C-isoleucine]
time course of Δ^13C values (‰) [19]: increased sharply up to about 9 min after the administration, but thereafter remained at an almost constant level up to 20 min

Δ^13C value (‰) at 5 min after the administration (diabetic rats (n=2), 10 mg/kg from the femoral vein, Example 24): 52.89±10.83 ‰
Δ^13C value (‰) at 5 min after the administration (normal rats, 10 mg/kg from the femoral vein, Example 24): 42.56±2.43 ‰
Structure (SMILES): CC(C)C[C@H](N)[13C](=O)O [1-^13C-leucine]

slope from 10 to 20 min after the administration [23]: −20.55±7.75 ‰/10 min
slope from 10 to 20 min after the administration [24]: −4.76±4.41 ‰/10 min
Structure (SMILES): CCCCCCC[13C](=O)O [1-^13C-octanoic acid]
time course of Δ^13C values (‰) [23]: increased sharply up to about 5 min after the administration, but thereafter decreased gradually up to 20 min
time course of Δ^13C values (‰) [24]: increased sharply up to about 5 min after the administration of 1-^13C-octanoic acid, and thereafter remained at an almost constant level up to 20 min

slope from 10 to 20 min after the administration [25]: −12.79±3.72 ‰/10 min
Δ^13C value (‰) at 8 min after the administration [25]: 132.93±7.09 ‰
slope from 10 to 20 min after the administration [26]: 13.61±4.58 ‰/10 min
time course of Δ^13C values (‰) [26]: continued increasing up to 20 min
Δ^13C value (‰) at 8 min after the administration [26]: 86.51±14.72 ‰
Structure (SMILES): CCCCCCCC/C=C\CCCCCCC[13C](=O)O [1-^13C-oleic acid]
time course of Δ^13C values (‰) [25]: increased sharply up to about 8 min after the administration, but thereafter decreased gradually up to 20 min

slope from 10 to 20 min after the administration [27]: −4.40±2.21 ‰/10 min
slope from 10 to 20 min after the administration [28]: 1.43±1.33 ‰/10 min
time course of Δ^13C values (‰) [28]: continued increasing up to 20 min
Structure (SMILES): CCCCCCCCCCCCCCC[13C](=O)O [1-^13C-palmitic acid]
time course of Δ^13C values (‰) [27]: increased sharply up to about 5 min after the administration, but thereafter decreased gradually up to 20 min

Δ^13C value (‰) at 20 min after the administration [29]: 115.77±6.61 ‰
Δ^13C value (‰) at 20 min after the administration [30]: 92.27±11.10 ‰
Structure (SMILES): O=[13C](O)C1CCCN1 (centres unmarked) [1-^13C-proline]
time course of Δ^13C values (‰) [29]: increased up to about 9 min after the administration of 1-^13C-proline, but thereafter decreased gradually up to 20 min
time course of Δ^13C values (‰) [30]: increased up to about 9 min after the administration of 1-^13C-proline, but thereafter decreased gradually up to 20 min
